Data reported in patent publication US8455649B2, “Insecticidal substituted azinyl derivatives” (Dow AgroSciences, LLC, priority 2007, dated 2013).
Read-outs that look alike come from different tables or passages of the source.

What was measured:
[1] = system: Beet Armyworm (Spodoptera exigua); experiment: Insecticidal diet-surface test for beet armyworm; format: in vivo; conditions: 120 h, second-instar larvae on treated diet, 50 μg/cm^2 on diet surface, 5 days after treatment, 8 insects per treatment, read-out: LAPHEG AVG % Mortality (50 μg/cm^2)
Summary of the method: (§1)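 Second-instar larvae placed on lepidopteran diet surface-treated with 50 μL of 2000 ppm compound in 9 acetone:1 water (stated as 50 μg/cm^2), eight wells per species. Held 5 days at 25° C, 50-55% RH, 16:8 h light:dark; mortality of 8 larvae scored as percent control.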

[2] = system: Corn Earworm (Helicoverpa zea); experiment: Insecticidal diet-surface test for corn earworm; format: in vivo; conditions: 120 h, read-out: HELIZE AVG % Mortality (50 μg/cm^2)
Summary of the method: as §1

[3] = second-instar larvae on treated diet, 50 μg/cm^2 on diet surface, 5 days after treatment, 8 insects per treatment

Row | SMILES | mortality at 50 µg/cm2 [1] [%] | mortality at 50 µg/cm2 [2, 3] [%] | mortality at 50 µg/cm2 [2] [%]
1 | COC(=O)CN(C(=O)Nc1nc(OCC(F)(F)F)cc(OCC(F)(F)F)n1)c1ccc(OC(F)(F)F)cc1 [Compound 28] | 100 | 100 | 
2 | CN(C(=O)Nc1cc(OCC(F)(F)F)nc(OCC(F)(F)F)n1)c1ccc(C(F)(F)F)cc1 [Compound 107] | 100 | 100 | 
3 | O=C(Nc1ccc(Cl)nc1)Nc1nc(OCC(F)(F)F)cc(OCC(F)(F)F)n1 [Compound 49] | 100 | 100 | 
4 | CN(C(=O)Nc1cc(OCC(F)(F)F)nc(OCC(F)(F)F)n1)c1ccc(Br)nc1 [Compound 109] | 88 | 25 | 
5 | CN(C(=O)Nc1nc(OCC(F)(F)F)nc(OCC(F)(F)F)n1)c1ccc(C(F)(F)F)cc1 [Compound 118, N′-[4,6-bis(2,2,2-trifluoroethoxy)-1,3,5-triazin-2-yl]-N-(4-trifluoromethylphenyl)-N-methylurea] | 100 | 100 | 
6 | CCOCN(C(=O)N(COCc1ccccc1)c1nc(OCC(F)(F)F)cc(OCC(F)(F)F)n1)c1ccc(C(F)(F)F)nc1 [Compound 88] | 100 | 100 | 
7 | CN(C(=O)Nc1nc(OCC(F)(F)F)cc(OCC(F)(F)F)n1)c1ccc(Br)c(Cl)c1 [Compound 84] | 100 | 100 | 
8 | O=C(Nc1ccc(C(F)(F)F)cc1)Nc1nc(OCC(F)F)cc(OCC(F)F)n1 [Compound 2] | 100 | 100 | 
9 | CN(C(=O)Nc1nc(OCC(F)(F)F)cc(OCC(F)(F)F)n1)c1cc(F)c(Br)cc1F [Compound 182] | 100 | 100 | 
10 | O=C(Nc1ccc(C(F)(F)F)cc1)Nc1cc(OCC(F)(F)F)nc(OCC(F)(F)F)n1 [Compound 105] | 100 | 0 | 
11 | COCCOCN(C(=O)Nc1nc(OCC(F)(F)F)cc(OCC(F)(F)F)n1)c1ccc(C(F)(F)F)cc1 [Compound 62] | 100 | 100 | 
12 | CN(C(=O)Nc1cc(C(F)(F)F)cc(OCC(F)(F)F)n1)c1ccc(OC(F)(F)F)cc1 [Compound 168] | 100 | 100 | 
13 | CN(C(=O)Nc1cc(C(F)(F)F)cc(OCC(F)(F)F)n1)c1ccc(C(F)(F)F)nc1 [Compound 170] | 75 | 100 | 
14 | O=C(Nc1ccc(C(F)(F)F)nc1)Nc1nc(OCC(F)(F)F)c(Cl)c(OCC(F)(F)F)n1 [Compound 135] | 100 | 100 | 
15 | CCOCN(C(=O)Nc1ccc(C(F)(F)F)cc1)c1nc(OCC(F)(F)F)cc(OCC(F)(F)F)n1 [Compound 18] | 100 | 100 | 
16 | Cc1c(OCC(F)(F)F)nc(NC(=O)Nc2ccc(C(F)(F)F)cc2)nc1OCC(F)(F)F [Compound 147] | 88 | 100 | 
17 | COCCN(C(=O)Nc1nc(OCC(F)(F)F)cc(OCC(F)(F)F)n1)c1ccc(OC(F)(F)F)cc1 [Compound 50] | 100 | 100 | 
18 | O=C(Nc1ccc(SC(F)(F)F)cc1)Nc1nc(OCC(F)(F)F)cc(OCC(F)(F)F)n1 [Compound 58] | 100 | 100 | 
19 | CN(C(=O)Nc1nc(OCC(F)(F)F)cc(OCC(F)(F)F)n1)c1ccc(C(F)(F)F)c(Cl)c1 [Compound 153] | 100 | 100 | 

Row | SMILES | mortality at 50 µg/cm2 [1] [%] | mortality at 50 µg/cm2 [2, 3] [%] | mortality at 50 µg/cm2 [2] [%]
20 | CC(=O)OCN(C(=O)Nc1nc(OCC(F)(F)F)cc(OCC(F)(F)F)n1)c1ccc(C(F)(F)F)cc1 [Compound 38] | 100 | 100 | 
21 | O=C(Nc1nc(OCC(F)(F)F)cc(OCC(F)(F)F)n1)N(c1ccc(C(F)(F)F)cc1)C1CC1 [Compound 156] | 100 | 100 | 
22 | O=C(Nc1ccc(C(F)(F)F)cc1)Nc1cc(C(F)(F)F)cc(OCC(F)(F)F)n1 [Compound 164] | 88 | 100 | 
23 | CN(C(=O)Nc1nc(OCC(F)(F)F)cc(OCC(F)(F)F)n1)c1ccc(I)cc1 [Compound 81] | 100 | 100 | 
24 | O=C(Nc1ccc(OC(F)(F)F)cc1)Nc1cc(C(F)(F)F)cc(OCC(F)(F)F)n1 [Compound 163] | 100 | 100 | 
25 | CN(C(=O)Nc1nc(OCC(F)(F)C(F)F)cc(OCC(F)(F)C(F)F)n1)c1ccc(C(F)(F)F)cc1 [Compound 177] | 100 | 100 | 
26 | O=C(Nc1ccc(OC(F)(F)F)cc1)Nc1nc(OCC(F)(F)C(F)(F)F)cc(OCC(F)(F)C(F)(F)F)n1 [Compound 104] | 0 | 100 | 
27 | CCc1cc(Br)ccc1N(C)C(=O)Nc1nc(OCC(F)(F)F)cc(OCC(F)(F)F)n1 [Compound 157] | 100 | 100 | 
28 | O=C(Nc1ccc(S(=O)(=O)C(F)(F)F)cc1)Nc1nc(OCC(F)(F)F)cc(OCC(F)(F)F)n1 [Compound 59] | 0 | 100 | 
29 | CN(C(=O)N(C)c1nc(OCC(F)(F)F)cc(OCC(F)(F)F)n1)c1ccc(OC(F)(F)F)cc1 [Compound 11, N-[4,6-bis(2,2,2-trifluoroethoxy)pyrimidin-2-yl]-N,N′-dimethyl-N-[4-(trifluoromethoxy)phenyl]urea] | 100 | 100 | 
30 | CN(C(=O)Nc1cc(C(F)(F)F)cc(OCC(F)(F)F)n1)c1ccc(Br)nc1 [Compound 169] | 100 | 100 | 
31 | CCOC(=O)N(C(=O)Nc1nc(OCC(F)(F)F)cc(OCC(F)(F)F)n1)c1ccc(C(F)(F)F)cc1 [Compound 35] | 100 |  | 100
32 | CN(C(=S)Nc1nc(OCC(F)(F)F)cc(OCC(F)(F)F)n1)c1ccc(C(F)(F)F)nc1 [Compound 133] | 100 | 100 | 
33 | O=C(Nc1ccc(Br)cc1)Nc1nc(OCC(F)(F)F)nc(OCC(F)(F)F)n1 [Compound 117] | 100 | 0 | 
34 | CCOc1cc(OCC(F)(F)F)nc(NC(=O)Nc2ccc(C(F)(F)F)cc2)n1 [Compound 100] | 100 | 100 | 
35 | CN(C(=O)Nc1nc(OCC(F)(F)F)cc(OCC(F)(F)F)n1)c1ccc(Cl)cc1 [Compound 21] | 100 | 100 | 
36 | O=C1CN(c2ccc(OC(F)(F)F)cc2)C(=O)N1c1nc(OCC(F)(F)F)cc(OCC(F)(F)F)n1 [Compound 30] | 88 | 100 | 
37 | CN(C(=O)Nc1nc(OCC(F)(F)F)cc(OCC(F)(F)F)n1)c1ccc(C(F)(F)F)cn1 [Compound 122] | 100 | 88 | 
38 | CN(C(=O)Nc1cc(OCC(F)(F)F)nc(OCC(F)(F)F)n1)c1ccc(Cl)cc1 [Compound 112] | 50 | 100 | 
